In EP4782466A1, “FUSION PROTEIN FOR INACTIVATING CORONAVIRUS AND USE THEREOF” (priority 2023, dated 2025):

Key:
[1] = test system: SARS-CoV-2 BA.2.75 pseudovirus
[2] = test system: SARS-CoV-2 BA.2.12.1 pseudovirus
[3] = test system: SARS-CoV-2 XBB pseudovirus
[4] = test system: SARS-CoV-2 Delta pseudovirus
[5] = test system: SARS-CoV-2 Gamma pseudovirus
[6] = test system: SARS-CoV-2 Beta pseudovirus
[7] = test system: SARS-CoV-2 Lambda pseudovirus
[8] = test system: SARS-CoV-2 BA.4.6 pseudovirus
[9] = test system: SARS-CoV-2 BA.2.2 pseudovirus
[10] = test system: SARS-CoV-2 BA.3 pseudovirus
[11] = test system: SARS-CoV-2 BA.2 pseudovirus
[12] = test system: SARS-CoV-2 BF.7 pseudovirus
[13] = test system: SARS-CoV-2 Alpha pseudovirus
[14] = test system: SARS-CoV-2 prototype pseudovirus
[15] = test system: SARS-CoV-2 BA.5 pseudovirus
[16] = test system: SARS-CoV-2 BQ.1 pseudovirus
[17] = test system: SARS-CoV-2 BA.2.9 pseudovirus
[18] = test system: SARS-CoV-2 BA.1 pseudovirus
[19] = test system: coronavirus pseudoviruses such as 2019-nCoV; details: verified in Chinese Patent Application No. CN202180001804.1; cited from earlier work

## CC[C@H](C)[C@H](NC(=O)[C@H](C)NC(=O)[C@H](CCC(=O)O)NC(=O)[C@H](CCC(=O)O)NC(=O)[C@H](CC(C)C)NC(=O)[C@H](CCCCN)NC(=O)[C@H](CCCCN)NC(=O)[C@H](CCSC)NC(=O)[C@H](CCC(=O)O)NC(=O)[C@H](Cc1ccc(O)cc1)NC(=O)[C@H](CCC(=O)O)NC(=O)[C@H](CC(C)C)NC(=O)[C@H](CC(=O)O)NC(=O)[C@H](CC(C)C)NC(=O)[C@H](Cc1ccccc1)NC(=O)[C@@H](NC(=O)[C@@H](NC(=O)[C@H](CC(N)=O)NC(=O)[C@@H](NC(=O)[C@H](CCC(N)=O)NC(=O)[C@H](CC(=O)O)NC(=O)[C@H](CC(C)C)NC(=O)[C@@H](N)CO)[C@@H](C)CC)C(C)C)[C@@H](C)O)C(=O)N[C@@H](CCCCN)C(=O)N[C@@H](CCCCN)C(=O)N[C@@H](CC(C)C)C(=O)N[C@@H](CCC(=O)O)C(=O)N[C@@H](CCC(=O)O)C(=O)N[C@@H](CO)C(=O)N[C@@H](Cc1ccc(O)cc1)C(=O)N[C@H](C(=O)N[C@@H](CC(=O)O)C(=O)N[C@@H](CC(C)C)C(=O)N[C@@H](CCCCN)C(=O)N[C@@H](CCC(=O)O)C(=O)N[C@@H](CC(C)C)C(=O)O)[C@@H](C)CC [EK1]
[1]
  IC50: 331 nM
[2]
  IC50: 342 nM
[3]
  IC50: 233 nM
[4]
  IC50: 150 nM
HCoV-NL63 pseudovirus
  IC50: 1070 nM
[5]
  IC50: 277 nM
[6]
  IC50: 257 nM
[7]
  IC50: 995 nM
[8]
  IC50: 473 nM
Rs3367 pseudovirus
  IC50: 1340 nM
[9]
  IC50: 162 nM
SARS-CoV pseudovirus
  IC50: 841 nM
[10]
  IC50: 136 nM
[11]
  IC50: 297 nM
[12]
  IC50: 584 nM
[13]
  IC50: 268 nM
[14]
  IC50: 186 nM
[15]
  IC50: 568 nM
[16]
  IC50: 136 nM
[17]
  IC50: 199 nM
[18]
  IC50: 70.5 nM
WIV1 pseudovirus
  IC50: 2450 nM

## SLDQINVTFLDLEYEMKKLEEAIKKLEESYIDLKEL-GSGSG-DPEG4-C(cholesterol) [EK1-chol]
[19]
  inhibitory activity against coronavirus pseudoviruses: possess inhibitory activity

## SLDQINVTFLDLEYEMKKLEEAIKKLEESYIDLKEL-GSG-DPEG4-K(palmitic) [EK1-palmitic]
[19]
  inhibitory activity against coronavirus pseudoviruses: possess inhibitory activity
